Columns and labels:
liver cancer patients = test: Survival of liver cancer patients treated with MPA after surgery; format: in vivo, human; settings: P value 0.008
Description: In ‘in vitro’ studies and clinical experiments, leptin and MPA are found to have obvious effect on suppressing liver cancer cells and improving patient's survival rate. Thus, the therapeutic drug is formed by combining MAP with leptin to cure liver cancer patients, where the physiological concentration of leptin in a normal human body is almost able to enhance the treatment effect of MPA. MPA is used for treatment in the present invention, where, for obtaining a better effect, leptin is directly combined with MPA or leptin is obtained by increasing the physiological concentration of leptin in the patient at first.
Consequently, the leptin expression can be taken as an index for effectiveness of the hormone therapy (i.e. MPA) after the surgery; and, the survival time of the liver cancer patients can be maintained or even prolonged.

JAK/STAT path = test: Western blotting of JAK/STAT path proteins in liver cancer cells; format: cell-based; settings: 24 hours
Protocol: Please refer to FIG. 11, which is a view showing expression of JAK/STAT path after applied with a drug. As shown in the figure, the preferred embodiment analyzes related proteins of liver cancer cells through western blotting after applied with MPA+leptin for 24 hours.
Please refer to FIG. 13A and FIG. 13A, which are views showing expressions of proteins of JAK/STAT path and proteins of MAPK path after applied with a drug for a short time. As shown in the figures, the preferred embodiment processes liver cancer cells with high-dose leptin, high-dose MPA and high-dose leptin combined with high-dose MPA for 30 minutes. Then, related JAK/STAT proteins are collected for analyzing their expressions through western blotting.
Please refer to FIG. 14, which is a view showing reduced p-STAT3 degradation by suppressing the ERK1/2 activation and the PIAS3 expression. […] The preferred embodiment uses a 10^−6M p-ERK1/2 inhibitor (U0126) for 4 hours before a drug is applied; then, liver cancer cells are applied with the drug of MPA+leptin for 3 hours to collect cellular proteins for analyzing expression of related proteins through western blotting. […] As a conclusion, MPA activates ERK1/2 to indirectly induce PIAS3 expression for suppressing p-STAT3 (Tyr705) for cell apoptosis, where leptin enhances activation of ERK1/2 with MPA for increasing cell apoptosis.
Please refer to FIG. 15A to FIG. 16B, which are views showing cells containing very much leptin within; suppressed growth of the cells by using MPA; and STAT3- and MAPK-signal paths of the cells after MPA is applied. […] Then, after the cells are processed with 10^−4M MPA for 24 hours, cell growth is analyzed through XTT assay. […] Then, after the cells are processed with 10^−4 M MPA for 24 hours, JAK/STAT-related proteins are analyzed through western blotting.

[1] = tested on: cleaved caspase 3, cleaved caspase 7 and cleaved PARP; test: Western blotting of apoptosis-related proteins; format: cell-based; settings: 24 hours
Protocol: Please refer to FIG. 7, which is a view showing effect of MPA+leptin on related proteins for apoptosis. As shown in the figure, through analysis on liver cancer cells after applied with MPA+leptin for 24 hours, observation is done with a focus on changes of their related proteins for apoptosis. When different doses of MPA are combined with different doses of leptin for treatment for 24 hours, cellular proteins of anti-cleaved caspase 3, anti-cleaved caspase 7 and anti-cleaved Poly-ADP-ribose-polymerase (PARP) are processed with western blotting.

[2] = tested on: liver cancer cells (hepatocellular carcinoma cell line); test: XTT assay, growth of liver cancer cells; format: cell-based
Protocol: Please refer to FIG. 2, which is a view showing leptin's effect on growth of liver cancer cells. As shown in the figure, for acquiring effect of leptin on liver cancer cells, the preferred embodiment uses leptin having different doses, where the high-dose leptin has 100 nano-grams (ng) and the low-dose leptin has 10 ng. The 10 ng leptin is conformed to the physiological concentration of normal human body for observing effect of leptin on the cells. In the other hand, the 100 ng leptin is used to show whether a higher levels of leptin obtains a higher effect on the cells.
Please refer to FIG. 3, which is a view showing MPA's effect on growth of liver cancer cells. As shown in the figure, the preferred embodiment applies MPA having different doses to liver cancer cells.
Please refer to FIG. 4, which is a view showing effect of MPA+leptin on growth of liver cancer cells. As shown in the figure, the preferred embodiment applies MPA combined with leptin to liver cancer cells, where MPA has different doses and leptin has different doses.
Please refer to FIG. 9, which is a view showing reduced effect of MPA+leptin by suppressing leptin receptor expression. As shown in the figure, a 20 nano-moles (nM) of leptin receptor, siRNA, is transferred to cells to be cultured a day and is cultured in a serum-free medium for the next day. Then, the cells are processed with MPA+leptin for 24 hours to be analyzed through XTT assay. […] Thus, it is confirmed that leptin enhances MPA's suppression on the cells through the leptin receptor.
Please refer to FIG. 10A and FIG. 10B, which are views showing apoptosis of cells on increasing expression of leptin receptor and expression of progesterone receptor respectively. As shown in the figures, the preferred embodiment makes ob-Rb plasmid transfected to cells to be cultured a day and is cultured in a serum-free medium for the next day. Then, the cells are processed with MPA+leptin for 24 hours to be analyzed through XTT assay. […] Besides, the long-form Ob-R enhances expression of the progesterone receptor. Again, the preferred embodiment makes PgR plasmid transfected to cells to be cultured a day and is cultured in a serum-free medium for the next day. Then, the cells are processed with MPA+leptin for 24 hours to be analyzed through XTT assay.
Please refer to FIG. 15A to FIG. 16B, which are views showing cells containing very much leptin within; suppressed growth of the cells by using MPA; and STAT3- and MAPK-signal paths of the cells after MPA is applied. As shown in the figures, while leptin is added from outside in state 13 to suppress liver cancer cells with MPA+leptin, the preferred embodiment here transfers expression plasmid of leptin (pcLeptin) to liver cancer cells to be cultured for a day; and a serum-free medium is used for the next day. Then, after the cells are processed with 10^−4M MPA for 24 hours, cell growth is analyzed through XTT assay. In FIG. 15A, leptin gene is transferred to cells for a short time for obtaining very much leptin within the cells by themselves. After applying MPA to the cells for 24 hours, it is confirmed that MPA's suppression on liver cancer cells is enhanced by a lot of leptin self-generated within the cells. Moreover, after obtaining a lot of leptin, medium is collected for immunoprecipitation and further western blotting. […] Then, after the cells are processed with 10^−4 M MPA for 24 hours, JAK/STAT-related proteins are analyzed through western blotting.

SMILES: CC(=O)O[C@]1(C(C)=O)CC[C@H]2[C@@H]3C[C@H](C)C4=CC(=O)CC[C@]4(C)[C@H]3CC[C@@]21C [MPA, medroxyprogesterone acetate]
- survival time, patients with higher versus lower leptin expression (liver cancer patients): longer survival time
- p-ob-R, ob-R and PgR expression (JAK/STAT path): suppresses
- activation of STAT3 compared with cells without much leptin (JAK/STAT path; pcLeptin-transfected cells, 10^-4 M MPA): more obviously suppressed
- activation of cleaved caspase 3/7 and cleaved PARP [1]: obviously activated
- MPA's suppression on liver cancer cells ([2]; cells transfected with pcLeptin, 10^-4 M MPA, 24 hours): enhanced
- suppressive effect on liver cancer cells ([2]; high-dose MPA 10^-4 M, 24 hours): obvious suppressive effect
- suppressive effect on liver cancer cells ([2]; high-dose MPA 10^-4 M, 48 hours): the effect is enhanced
- suppressive effect on liver cancer cells ([2]; low-dose MPA 10^-6 M, 24 hours or 48 hours): does not have obvious suppressive effect

Source: patent US20110098219A1, “System for Curing Hepatic Cancer with Leptin” (KAOHSIUNG MEDICAL UNIVERSITY, priority 2009, published 2011)
